Columns and labels:
Oral bioavailability = format: in vivo
[1] = system: genetically defined cancer cells; assay: Target methyl mark inhibition and killing of cancer cells in vitro; format: cell-based
Animal models = assay: In vivo efficacy in animal models

CCN(c1cc(-c2ccc(CN3CCOCC3)cc2)cc(C(=O)NCc2c(C)cc(C)[nH]c2=O)c1C)C1CCOCC1 [Compound 44]
oral bioavailability (Oral bioavailability): orally bioavailable
target methyl mark inhibition resulting in killing of cancer cells [1]: killing of genetically defined cancer cells in vitro
in vivo efficacy following inhibition of target methyl mark (Animal models): sustained in vivo efficacy

— patent publication US11786533B2, “Use of EZH2 inhibitors for treating cancer” (Epizyme, Inc., priority 2016, dated 2023)
